For orientation: Inhibition means the drop in the measured response relative to a control, in per cent.

Peptide text beside a SMILES is read from it.

These results are taken from patent US20250382332A1, “NOVEL ALPHA-FACTOR BASED PEPTIDES WITH ANTIFUNGAL ACTIVITY” (INVAIO SCIENCES, INC., priority 2024, published 2025).

This assay deals with Botrytis cinerea (B05.10). Put plainly: Resazurin antifungal assay of 180 alpha-factor peptide variants towards Botrytis (Example 2). The format is cell-based. Also noted: key to active against Botrytis at 15 μM / active against Botrytis at 10 μM: Peptides that showed greater than 90% inhibition were considered active against Botrytis. The note with it: for Inhibition at 50 μM / Inhibition at 100 μM / Inhibition at 10 μM / Inhibition at 15 μM / Inhibition at 20 μM: % inhibition of fungal growth, Botrytis conidia, resazurin; for Inhibition at 50 μM: peptide 50 μM; for Inhibition at 100 μM: peptide 100 μM; for Inhibition at 10 μM: peptide 10 μM; for Inhibition at 20 μM: peptide 20 μM. An outline of the steps:
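Resazurin viability read-out (570/620 nm fluorescence) after a 24 h, 20° C incubation of B05.10 conidia, 5000 per well, with peptide at final 10-100 μM. Growth inhibition (%) was derived by subtracting conidia-only fluorescence; four replicates per treatment.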
A general note: Resazurin is reduced to fluorescent resorufin, in cell work by metabolically active cells.

For the compound `CSCC[C@H](NC(=O)CNC(=O)[C@H](CCC(N)=O)NC(=O)CNC(=O)[C@@H](NC(=O)[C@H](CCCCN)NC(=O)[C@H](CC(C)C)NC(=O)[C@H](CC(N)=O)NC(=O)[C@@H](NC(=O)[C@H](Cc1c[nH]c2ccccc12)NC(=O)[C@H](Cc1c[nH]cn1)NC(=O)[C@@H]1CCCN1)C(C)C)[C@@H](C)O)C(=O)N[C@@H](Cc1ccc(O)cc1)C(=O)O` [compound 44] (H-PHWVNLKTGQGMY-OH; N-terminus and C-terminus assumed), the “Inhibition at 50 μM” value was less than 90% and the “Inhibition at 100 μM” value was less than 90%.

As to `CSCC[C@H](NC(=O)[C@H](CO)NC(=O)[C@H](CCC(N)=O)NC(=O)CNC(=O)[C@@H]1CCCN1C(=O)[C@H](CCCCN)NC(=O)[C@H](Cc1ccccc1)NC(=O)[C@H](CCC(N)=O)NC(=O)[C@H](CC(C)C)NC(=O)CNC(=O)[C@@H](NC(=O)[C@@H]1CCCN1)[C@@H](C)O)C(=O)N[C@@H](Cc1ccc(O)cc1)C(=O)O` [compound 45] (H-PTGLQFKPGQSMY-OH; N-terminus and C-terminus assumed), the “Inhibition at 50 μM” value is reported as less than 90% and the “Inhibition at 100 μM” value is less than 90%.

Consider `CSCC[C@H](NC(=O)[C@@H]1CCCN1C(=O)[C@H](CCC(N)=O)NC(=O)CNC(=O)[C@@H](NC(=O)[C@H](CC(N)=O)NC(=O)[C@H](CC(C)C)NC(=O)[C@H](CO)NC(=O)[C@H](CC(C)C)NC(=O)[C@H](Cc1c[nH]c2ccccc12)NC(=O)[C@H](Cc1c[nH]cn1)NC(=O)[C@@H](N)Cc1c[nH]c2ccccc12)[C@@H](C)O)C(=O)N[C@@H](Cc1ccc(O)cc1)C(=O)O` [compound 46] (H-WHWLSLNTGQPMY-OH; N-terminus and C-terminus assumed), for which the “Inhibition at 50 μM” value is listed as less than 90% and the “Inhibition at 100 μM” value came to 97.03%.

As to `CSCC[C@H](NC(=O)[C@@H]1CCCN1C(=O)[C@H](CCC(N)=O)NC(=O)CNC(=O)[C@@H]1CCCN1C(=O)[C@H](Cc1c[nH]c2ccccc12)NC(=O)[C@H](CC(C)C)NC(=O)[C@H](CCC(=O)O)NC(=O)[C@H](CC(C)C)NC(=O)[C@H](CC(=O)O)NC(=O)[C@H](Cc1c[nH]cn1)NC(=O)[C@@H](N)CCCCN)C(=O)N[C@@H](Cc1ccc(O)cc1)C(=O)O` [compound 47] (H-KHDLELWPGQPMY-OH; N-terminus and C-terminus assumed), the “Inhibition at 50 μM” value is on record as less than 90% and the “Inhibition at 100 μM” value is reported as less than 90%.

As to `CSCC[C@H](NC(=O)[C@@H]1CCCN1C(=O)[C@H](CCC(N)=O)NC(=O)CNC(=O)[C@@H]1CCCN1C(=O)[C@H](CCCCN)NC(=O)[C@H](CC(C)C)NC(=O)[C@H](C)NC(=O)[C@H](CC(C)C)NC(=O)CNC(=O)CNC(=O)[C@@H](N)Cc1c[nH]c2ccccc12)C(=O)N[C@@H](Cc1ccc(O)cc1)C(=O)O` [compound 48] (H-WGGLALKPGQPMY-OH; N-terminus and C-terminus assumed), the “Inhibition at 50 μM” value is listed as less than 90% and the “Inhibition at 100 μM” value is less than 90%.

Consider `CSCC[C@H](NC(=O)[C@@H]1CCCN1C(=O)[C@H](CCC(N)=O)NC(=O)CNC(=O)[C@@H]1CCCN1C(=O)[C@H](Cc1ccc(O)cc1)NC(=O)[C@H](CC(C)C)NC(=O)[C@H](CCCCN)NC(=O)[C@H](CC(C)C)NC(=O)[C@H](Cc1c[nH]c2ccccc12)NC(=O)[C@H](CCC(=O)O)NC(=O)[C@@H]1CCCN1)C(=O)N[C@@H](Cc1ccc(O)cc1)C(=O)O` [compound 49] (H-PEWLKLYPGQPMY-OH; N-terminus and C-terminus assumed), for which the “Inhibition at 50 μM” value is reported as less than 90% and the “Inhibition at 100 μM” value is given as less than 90%.

As for `CSCC[C@H](NC(=O)[C@H](CO)NC(=O)[C@H](CO)NC(=O)CNC(=O)[C@@H]1CCCN1C(=O)[C@H](CCCCN)NC(=O)[C@H](CC(C)C)NC(=O)[C@H](CCC(N)=O)NC(=O)[C@H](CC(C)C)NC(=O)[C@@H](NC(=O)[C@H](CCCNC(=N)N)NC(=O)[C@@H](N)Cc1c[nH]c2ccccc12)C(C)C)C(=O)N[C@@H](Cc1ccc(O)cc1)C(=O)O` [compound 50] (H-WRVLQLKPGSSMY-OH; N-terminus and C-terminus assumed), the “Inhibition at 50 μM” value is reported as less than 90% and the “Inhibition at 100 μM” value was less than 90%.

With `CC[C@H](C)[C@H](NC(=O)[C@H](CCCNC(=N)N)NC(=O)[C@@H](NC(=O)[C@H](Cc1c[nH]c2ccccc12)NC(=O)[C@H](Cc1c[nH]cn1)NC(=O)[C@@H](N)Cc1c[nH]c2ccccc12)C(C)C)C(=O)N[C@@H](Cc1c[nH]c2ccccc12)C(=O)N1CCC[C@H]1C(=O)NCC(=O)N[C@@H](CCC(N)=O)C(=O)N1CCC[C@H]1C(=O)N[C@@H](CCSC)C(=O)N[C@@H](Cc1ccc(O)cc1)C(=O)O` [compound 51] (H-WHWVRIWPGQPMY-OH; N-terminus and C-terminus assumed), the “Inhibition at 10 μM” value is on record as less than 90%, the “Inhibition at 20 μM” value came to 97.13%, the “Inhibition at 50 μM” value is reported as 100% and the “Inhibition at 100 μM” value was 100%. Further, under “peptide 15 μM”, the “Inhibition at 15 μM” value is less than 90%.

`CC[C@H](C)[C@H](NC(=O)[C@H](CCCNC(=N)N)NC(=O)[C@H](CC(C)C)NC(=O)[C@H](Cc1c[nH]c2ccccc12)NC(=O)[C@H](Cc1c[nH]cn1)NC(=O)[C@@H](N)CCCCN)C(=O)N[C@@H](CCCCN)C(=O)N[C@@H](Cc1c[nH]c2ccccc12)C(=O)NCC(=O)N[C@@H](CCC(=O)O)C(=O)N1CCC[C@H]1C(=O)N[C@@H](CCSC)C(=O)N[C@@H](Cc1ccc(O)cc1)C(=O)O` [compound 52] (H-KHWLRIKWGEPMY-OH; N-terminus and C-terminus assumed): the “Inhibition at 10 μM” value is less than 90%, the “Inhibition at 20 μM” value amounted to 100%, the “Inhibition at 50 μM” value amounted to 100% and the “Inhibition at 100 μM” value amounted to 100%. In addition, where the note is “peptide 15 μM”, the “Inhibition at 15 μM” value is recorded as 97.66% and the “active against Botrytis at 15 μM” value was “active”.

Take `CSCC[C@H](NC(=O)[C@@H]1CCCN1C(=O)[C@H](CCC(N)=O)NC(=O)CNC(=O)[C@@H](NC(=O)[C@H](CCCCN)NC(=O)[C@H](CC(C)C)NC(=O)[C@H](CCCNC(=N)N)NC(=O)[C@@H](NC(=O)[C@H](Cc1c[nH]c2ccccc12)NC(=O)[C@H](CCCCN)NC(=O)[C@@H](N)Cc1c[nH]c2ccccc12)C(C)C)[C@@H](C)O)C(=O)N[C@@H](Cc1ccc(O)cc1)C(=O)O` [compound 53] (H-WKWVRLKTGQPMY-OH; N-terminus and C-terminus assumed): the “Inhibition at 10 μM” value is less than 90%, the “Inhibition at 20 μM” value was 100%, the “Inhibition at 50 μM” value came out at 100% and the “Inhibition at 100 μM” value came out at 100%. Further, the “Inhibition at 15 μM” value (peptide 15 μM) is given as less than 90%.

As for `CC[C@H](C)[C@H](NC(=O)[C@H](CCSC)NC(=O)[C@H](Cc1c[nH]cn1)NC(=O)[C@@H](N)CCCCN)C(=O)N[C@@H](CCC(N)=O)C(=O)N[C@@H](CC(C)C)C(=O)N[C@@H](Cc1ccc(O)cc1)C(=O)N[C@@H](Cc1c[nH]c2ccccc12)C(=O)NCC(=O)N[C@@H](CCC(N)=O)C(=O)N1CCC[C@H]1C(=O)N[C@@H](CCSC)C(=O)N[C@@H](Cc1ccc(O)cc1)C(=O)O` [compound 54] (H-KHMIQLYWGQPMY-OH; N-terminus and C-terminus assumed), the “Inhibition at 10 μM” value is reported as less than 90%, the “Inhibition at 20 μM” value amounted to 93.21%, the “Inhibition at 50 μM” value is listed as 100% and the “Inhibition at 100 μM” value is listed as 100%. Also, for the setting “peptide 15 μM”, the “Inhibition at 15 μM” value is less than 90%.

On to `CSCC[C@H](NC(=O)CNC(=O)[C@H](CO)NC(=O)CNC(=O)[C@@H]1CCCN1C(=O)[C@H](CCCCN)NC(=O)[C@H](CC(C)C)NC(=O)[C@H](CCCNC(=N)N)NC(=O)[C@H](CC(C)C)NC(=O)[C@H](Cc1ccc(O)cc1)NC(=O)[C@H](CCCNC(=N)N)NC(=O)[C@@H](N)Cc1c[nH]c2ccccc12)C(=O)N[C@@H](Cc1ccc(O)cc1)C(=O)O` [compound 55] (H-WRYLRLKPGSGMY-OH; N-terminus and C-terminus assumed), for which the “Inhibition at 10 μM” value is on record as less than 90%, the “Inhibition at 20 μM” value was determined as 99.43%, the “Inhibition at 50 μM” value was 100% and the “Inhibition at 100 μM” value is on record as 100%. Besides, where the note is “peptide 15 μM”, the “Inhibition at 15 μM” value is less than 90%.

Consider `CSCC[C@H](NC(=O)[C@@H]1CCCN1C(=O)[C@H](CCC(N)=O)NC(=O)CNC(=O)[C@H](CCCNC(=N)N)NC(=O)[C@H](CCCCN)NC(=O)[C@H](CC(C)C)NC(=O)[C@H](CCCCN)NC(=O)[C@H](CC(C)C)NC(=O)[C@H](CO)NC(=O)[C@H](Cc1c[nH]cn1)NC(=O)[C@@H](N)Cc1c[nH]c2ccccc12)C(=O)N[C@@H](Cc1ccc(O)cc1)C(=O)O` [compound 56] (H-WHSLKLKRGQPMY-OH; N-terminus and C-terminus assumed), for which the “Inhibition at 10 μM” value is less than 90%, the “Inhibition at 20 μM” value worked out at 99.84%, the “Inhibition at 50 μM” value is recorded as 100% and the “Inhibition at 100 μM” value worked out at 100%. Besides, the “Inhibition at 15 μM” value (peptide 15 μM) is on record as less than 90%.

On to `CC[C@H](C)[C@H](NC(=O)[C@H](C)NC(=O)[C@H](CC(C)C)NC(=O)[C@H](Cc1c[nH]c2ccccc12)NC(=O)[C@H](Cc1c[nH]cn1)NC(=O)[C@@H](N)Cc1c[nH]c2ccccc12)C(=O)N[C@@H](Cc1ccccc1)C(=O)N[C@@H](CCCNC(=N)N)C(=O)NCC(=O)N[C@@H](CCC(N)=O)C(=O)N1CCC[C@H]1C(=O)N[C@@H](CCSC)C(=O)N[C@@H](Cc1ccc(O)cc1)C(=O)O` [compound 57] (H-WHWLAIFRGQPMY-OH; N-terminus and C-terminus assumed), for which the “Inhibition at 10 μM” value is on record as 3.45%, the “Inhibition at 20 μM” value is on record as less than 90%, the “Inhibition at 50 μM” value worked out at 100% and the “Inhibition at 100 μM” value came to 100%.
